# Data from patent US11768156B2, “Methods and compositions for assessing cell viability” (Life Technologies Corporation, priority 2017, dated 2023).
# What was measured:
# Type in all cases: cell-based
# Jurkat cells [1] = assay: Flow cytometry of live and heat-treated Jurkat cells stained in PBS or complete media
# Jurkat cells [2] = assay: Flow cytometry of 50% live/50% dead Jurkat cell mixtures fixed with 4% formaldehyde; details: 25 μM dye, PBS or complete media, substantial majority of live cells
# Jurkat cells [3] = assay: Flow cytometry of 50% live/50% dead Jurkat cell mixtures, fixed and permeabilized
# untreated Jurkat cells = assay: Flow cytometry of untreated Jurkat cells in PBS or complete media; details: 25 μM, five minutes, PBS and complete media
# Protocol: Populations of untreated Jurkat cells in either PBS or complete media were incubated with 25 μM Compound 2 for five minutes and analyzed by flow cytometry. Results are shown in FIGS. 4A-4B (PBS and complete media, respectively).
# Jurkat cells [4] = test system: Jurkat cells
structure (smiles),measurement,setting,value
N=c1ccc2c(-c3ccc(C(=O)NCCCCCNC(=O)CCCc4ccc(N(CCCl)CCCl)cc4)cc3C(=O)O)c3ccc(N)c(S(=O)(=O)O)c3oc-2c1S(=O)(=O)O [Compound 2],variation in intensity of staining due to the presence of complete media,"Jurkat cells [1]; 25 μM dye, PBS versus complete media",little to no variation in intensity of staining
same,separation of live and dead cells in histograms,"Jurkat cells [1]; 25 μM dye, stained in PBS and in complete media (RPMI+10FBS), 488 nm excitation, 530/30 nm emission",clear separation of live and dead cells
same,"histogram peaks for staining in media versus in PBS (FIGS. 1B, 1C)","Jurkat cells [1]; live and dead cell peaks, media and PBS",overlap
same,separation of live cells from dead cells,Jurkat cells [2],two logs of separation
same,separation of live cells from dead cells,"Jurkat cells [3]; fixed and permeabilized, 25 μM dye, PBS or complete media, substantial majority of live cells",two logs of separation
same,"histogram peaks for staining in media versus in PBS (FIGS. 3A, 3B)","Jurkat cells [3]; fixed, permeabilized cells",mostly or partially overlap
same,strongly labeled peaks corresponding to dead cells,untreated Jurkat cells,7-14 % of total cells
same,"difference of unstained control from live cell peaks, peak to peak",Jurkat cells [4],1-1.5 logs
same,separation of dead cell peaks from the live cell peaks,Jurkat cells [4],good separation
same,"separation of dead cells from live cells, peak to peak",Jurkat cells [4],over 2 logs
same,staining of live cells (versus unstained control),Jurkat cells [4],negligible
